Data as given in US20240382450A1, “COMPOSITION OF B-CAR[…] A STATIN, AND METHODS OF USING SAME” (OrthoTreat Ltd., priority 2021, published 2024).

Columns and labels:
femoral bone fracture = experiment: Bone quality examined after 35 treatment days (decalcified and non-decalcified); assay type: in vivo, Sprague Dawley rats; conditions: following 35 treatment days, none-decalcification
Method: Pseudo-fractures were created by making a trough on one surface of the femoral shaft through one side of the cortex. The compositions were administered locally by daily injection. Animals: Naive male Sprague Dawley rats (SD rats), 12 weeks old, around 350 g. Right leg was treated while the left leg serves as a control (vehicle).
Bone quality was examined after 35 treatment days. For the G1−B+L group, cell proliferation was improved by >44% compared to untreated bone.
Bone endosteal & periosteal proliferation, defect fill and bone quality were evaluated following 35 treatment days of femoral bone fracture with β-caryophyllene (none-decalcification).

MUTZ-3 cells = conditions: MUTZ-3, 24 and 96 hours, tested 0 to 6,561 μM
Method: (§1) In vitro cytotoxicity & proliferation assay (basal) are being performed on human osteoblasts and stem cells monolayers.
As a human primary osteoclast cell is unable to proliferate, MUTZ-3, a human cell line model for osteoclast differentiation is also being used. MUTZ-3 cells are maintained in a 37° C. humidified incubator with 5% CO2 atmosphere. Cells are cultured in Dulbecco's modified Eagle's Medium (DMEM) supplemented with 10% foetal calf serum and 1% of the penicillin streptomycin stock solution.

[1] = system: Human primary osteoblast cells; conditions: osteoblasts, 24 and 96 hours, tested 0 to 6,561 μM
Method: as §1
Human primary osteoblast cells are maintained in a 37° C. humidified incubator with 5% CO2 atmosphere. Cells are cultured in Primary Osteoblast Media containing Primary Osteoblast Culture Supplement and 1% of the penicillin/streptomycin stock solution.

## (−)-β-caryophyllene
Femoral bone fracture
  bone quality: Significant improvement
  defect fill: Significant improvement
  endosteal and periosteal proliferation: Significant improvement
MUTZ-3 cells
  concentration without significant cytotoxic effect: up to 27 μM
[1]
  concentration without significant cytotoxic effect: up to 27 μM
